Results on 18 molecules are retold here after patent US20260028354A1, “TETRAHYDRONAPHTHALENE DERIVATIVES AS ESTROGEN RECEPTOR DEGRADERS” (REGENT OF THE UNIVERSITY OF MICHIGAN, priority 2022, published 2026).

The assay is described as follows: Western blot analysis for "B" compounds. Format: cell-based. The conditions noted are these: read-out: Traditional Western Degradation Potency (DC50). The method, boiled down: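 Compound-treated cells lysed in RIPA buffer with protease inhibitors; equal protein (BCA) run on 10% SDS-PAGE, transferred to PVDF and probed with target antibodies. Band intensities quantified by densitometry and normalized to GAPDH.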

`O=C1CCC(N2C(=O)c3cc4c(cc3C2=O)CN(CC2(F)CCN(C(=O)C3CN(c5ccc([C@@H]6c7ccc(O)cc7CC[C@@H]6c6ccccc6)cc5)C3)CC2)C4)C(=O)N1` (stereo partly drawn) [Compound B262, 2-(2,6-dioxopiperidin-3-yl)-6-((4-fluoro-1-(1-(4-((1R,2S)-6-hydroxy-2-phenyl-1,2,3,4-tetrahydronaphthalen-1-yl)phenyl)azetidine-3-carbonyl)piperidin-4-yl)methyl)-6,7-dihydropyrrolo[3,4-f]isoindole-1,3(2H,5H)-dione]: the DC50 was greater than 100 nM.
The value for `O=C1CCC(N2C(=O)c3cc4c(cc3C2=O)CN(CC2CN(C(=O)C3CCN(c5ccc([C@@H]6c7ccc(O)cc7CC[C@@H]6c6ccccc6)cc5)CC3)C2)C4)C(=O)N1` (mixture of isomers) [Compound B10, 2-(2,6-dioxopiperidin-3-yl)-6-((1-(1-(4-((1R,2S)-6-hydroxy-2-phenyl-1,2,3,4-tetrahydronaphthalen-1-yl)phenyl)piperidine-4-carbonyl)azetidin-3-yl)methyl)-6,7-dihydropyrrolo[3,4-f]isoindole-1,3(2H,5H)-dione] was 10 to 100 nM; that for `CN(CC1CN(c2ccc([C@@H]3c4ccc(O)cc4CC[C@@H]3c3ccccc3)cc2)C1)C1CCC(N2Cc3cc4c(cc3C2)C(=O)N(C2CCC(=O)NC2=O)C4=O)CC1` (stereo partly drawn) [Compound B95, 2-(2,6-dioxopiperidin-3-yl)-6-(4-(((1-(4-((1R,2S)-6-hydroxy-2-phenyl-1,2,3,4-tetrahydronaphthalen-1-yl)phenyl)azetidin-3-yl)methyl)(methyl)amino)cyclohexyl)-6,7-dihydropyrrolo[3,4-f]isoindole-1,3(2H,5H)-dione] was greater than 100 nM; that for `CN(c1ccc([C@@H]2c3ccc(O)cc3CC[C@@H]2c2ccccc2)cc1)C1CN([C@H]2CC[C@@H](C(=O)N3Cc4cc5c(cc4C3)C(=O)N(C3CCC(=O)NC3=O)C5=O)CC2)C1` (stereo partly drawn) [Compound B131, 2-(2,6-dioxopiperidin-3-yl)-6-((1S,4s)-4-(3-((4-((1R,2S)-6-hydroxy-2-phenyl-1,2,3,4-tetrahydronaphthalen-1-yl)phenyl)(methyl)amino)azetidin-1-yl)cyclohexane-1-carbonyl)-6,7-dihydropyrrolo[3,4-f]isoindole-1,3(2H,5H)-dione] was greater than 100 nM.
For `O=C1CCC(N2C(=O)c3cc4c(cc3C2=O)CN(C(=O)CN2CCC3(CC2)CCN(c2ccc([C@@H]5c6ccc(O)cc6CC[C@@H]5c5ccccc5)cc2)C3)C4)C(=O)N1` (mixture of isomers) [Compound B22, 2-(2,6-dioxopiperidin-3-yl)-6-(2-(2-(4-((1R,2S)-6-hydroxy-2-phenyl-1,2,3,4-tetrahydronaphthalen-1-yl)phenyl)-2,8-diazaspiro[4.5]decan-8-yl)acetyl)-6,7-dihydropyrrolo[3,4-f]isoindole-1,3(2H,5H)-dione] the value was greater than 100 nM; for `O=C1CCC(N2C(=O)c3cc4c(cc3C2=O)CN(CC(=O)N2CCC3(CC2)CCN(c2ccc([C@@H]5c6ccc(O)cc6CC[C@@H]5c5ccccc5)cc2)CC3)CC4)C(=O)N1` (stereo partly drawn) [Compound B195, 2-(2,6-dioxopiperidin-3-yl)-6-(2-(9-(4-((1R,2S)-6-hydroxy-2-phenyl-1,2,3,4-tetrahydronaphthalen-1-yl)phenyl)-3,9-diazaspiro[5.5]undecan-3-yl)-2-oxoethyl)-5,6,7,8-tetrahydro-1H-pyrrolo[3,4-g]isoquinoline-1,3(2H)-dione], 10 to 100 nM; for `O=C1CCC(N2C(=O)c3cc4c(cc3C2=O)CN(CC(=O)N2CCC3(CC2)CN(c2ccc([C@@H]5c6ccc(O)cc6CC[C@@H]5c5ccc(F)cc5Cl)cc2)C3)C4)C(=O)N1` (mixture of isomers) [Compound B259, 6-(2-(2-(4-((1R,2S)-2-(2-chloro-4-fluorophenyl)-6-hydroxy-1,2,3,4-tetrahydronaphthalen-1-yl)phenyl)-2,7-diazaspiro[3.5]nonan-7-yl)-2-oxoethyl)-2-(2,6-dioxopiperidin-3-yl)-6,7-dihydropyrrolo[3,4-f]isoindole-1,3(2H,5H)-dione], 10 to 100 nM.
The value for `O=C1CCC(N2C(=O)c3cc4c(cc3C2=O)CN(CC(=O)N2CCC3(C2)CN(c2ccc([C@@H]5c6ccc(O)cc6CC[C@@H]5c5ccccc5)cc2)C3)C4)C(=O)N1` (mixture of isomers) [Compound B187, 2-(2,6-dioxopiperidin-3-yl)-6-(2-(2-(4-((1R,2S)-6-hydroxy-2-phenyl-1,2,3,4-tetrahydronaphthalen-1-yl)phenyl)-2,6-diazaspiro[3.4]octan-6-yl)-2-oxoethyl)-6,7-dihydropyrrolo[3,4-f]isoindole-1,3(2H,5H)-dione] was 10 to 100 nM.
For the molecule `O=C1CCC(N2C(=O)c3cc4c(cc3C2=O)CN(CC2CN(CC3CN(c5ccc([C@@H]6c7ccc(O)cc7CC[C@@H]6c6ccc(F)cc6)cc5)C3)C2)C4)C(=O)N1` (stereo partly drawn) [Compound B71, 2-(2,6-dioxopiperidin-3-yl)-6-((1-((1-(4-((1R,2S)-2-(4-fluorophenyl)-6-hydroxy-1,2,3,4-tetrahydronaphthalen-1-yl)phenyl)azetidin-3-yl)methyl)azetidin-3-yl)methyl)-6,7-dihydropyrrolo[3,4-f]isoindole-1,3(2H,5H)-dione], the 50% degradation concentration (DC50) was greater than 100 nM.
With `O=C1CCC(N2C(=O)c3cc4c(cc3C2=O)CN(C2CCN(C(=O)C3(F)CCN(c5ccc([C@@H]6c7ccc(O)cc7CC[C@@H]6c6ccccc6)cc5)CC3)CC2)C4)C(=O)N1` (stereo partly drawn) [Compound B280, 2-(2,6-dioxopiperidin-3-yl)-6-(1-(4-fluoro-1-(4-((1R,2S)-6-hydroxy-2-phenyl-1,2,3,4-tetrahydronaphthalen-1-yl)phenyl)piperidine-4-carbonyl)piperidin-4-yl)-6,7-dihydropyrrolo[3,4-f]isoindole-1,3(2H,5H)-dione], the DC50 is greater than 100 nM.
As for `O=C1CCC(N2C(=O)c3cc4c(cc3C2=O)CN(C(=O)CN2CC3(CCN(c5ccc([C@@H]6c7ccc(O)cc7CC[C@@H]6c6ccccc6)cc5)CC3)C2)C4)C(=O)N1` (mixture of isomers) [Compound B17, 2-(2,6-dioxopiperidin-3-yl)-6-(2-(7-(4-((1R,2S)-6-hydroxy-2-phenyl-1,2,3,4-tetrahydronaphthalen-1-yl)phenyl)-2,7-diazaspiro[3.5]nonan-2-yl)acetyl)-6,7-dihydropyrrolo[3,4-f]isoindole-1,3(2H,5H)-dione], the DC50 lay within 10 to 100 nM.
Take “2-(2,6-dioxopiperidin-3-yl)-6-((1S,4s)-4-((3-((4-((1R,2S)-6- hydroxy-2-phenyl-1,2,3,4-tetrahydronaphthalen-1- yl)phenyl)amino)azetidin-1-yl)methyl)cyclohexane-1- carbonyl)-6,7-dihydropyrrolo[3,4-f]isoindole-1,3(2H,5H)- dionc [Compound B113]”: the DC50 is 10 to 100 nM.
For `O=C1CCC(N2C(=O)c3cc4c(cc3C2=O)CN(CC(=O)N2CCC[C@H](Oc3ccc([C@@H]5c6ccc(O)cc6CC[C@@H]5c5ccc(F)cc5)cc3)C2)C4)C(=O)N1` (stereo partly drawn) [Compound B36, 2-(2,6-dioxopiperidin-3-yl)-6-(2-((S)-3-(4-((1R,2S)-2-(4-fluorophenyl)-6-hydroxy-1,2,3,4-tetrahydronaphthalen-1-yl)phenoxy)piperidin-1-yl)-2-oxoethyl)-6,7-dihydropyrrolo[3,4-f]isoindole-1,3(2H,5H)-dione] the value was greater than 100 nM.
The value for `C[C@@H]1CC2(CCN(c3ccc([C@@H]4c5ccc(O)cc5CC[C@@H]4c4ccc(F)cc4)cc3)CC2)CN1C(=O)CN1Cc2cc3c(cc2C1)C(=O)N(C1CCC(=O)NC1=O)C3=O` (mixture of isomers) [Compound B26, 2-(2,6-dioxopiperidin-3-yl)-6-(2-((R)-8-(4-((1R,2S)-2-(4-fluorophenyl)-6-hydroxy-1,2,3,4-tetrahydronaphthalen-1-yl)phenyl)-3-methyl-2,8-diazaspiro[4.5]decan-2-yl)-2-oxoethyl)-6,7-dihydropyrrolo[3,4-f]isoindole-1,3(2H,5H)-dione] was 10 to 100 nM; that for `C[C@H]1CC2(CCN(CC(=O)N3Cc4cc5c(cc4C3)C(=O)N(C3CCC(=O)NC3=O)C5=O)CC2)CN1c1ccc([C@@H]2c3ccc(O)cc3CC[C@@H]2c2ccccc2)cc1` (stereo partly drawn) [Compound B25, 2-(2,6-dioxopiperidin-3-yl)-6-(2-((S)-2-(4-((1R,2S)-6-hydroxy-2-phenyl-1,2,3,4-tetrahydronaphthalen-1-yl)phenyl)-3-methyl-2,8-diazaspiro[4.5]decan-8-yl)acetyl)-6,7-dihydropyrrolo[3,4-f]isoindole-1,3(2H,5H)-dione] was greater than 100 nM.
For `O=C1CCC(N2C(=O)c3cc4c(cc3C2=O)CN(CC(=O)N2CCC3(CC2)CC(Oc2ccc([C@@H]5c6ccc(O)cc6CC[C@@H]5c5ccccc5)cc2)C3)C4)C(=O)N1` (stereo partly drawn) [Compound B275, 2-(2,6-dioxopiperidin-3-yl)-6-(2-(2-(4-((1R,2S)-6-hydroxy-2-phenyl-1,2,3,4-tetrahydronaphthalen-1-yl)phenoxy)-7-azaspiro[3.5]nonan-7-yl)-2-oxoethyl)-6,7-dihydropyrrolo[3,4-f]isoindole-1,3(2H,5H)-dione] the value was greater than 100 nM; for `O=C1CCC(N2C(=O)c3cc4c(cc3C2=O)CN(CC(=O)N2CC3(CCN(c5ccc([C@H]6c7ccc(O)cc7CC[C@H]6c6ccccc6)cc5)CC3)C2)C4)C(=O)N1` (stereo partly drawn) [Compound B179, 2-(2,6-dioxopiperidin-3-yl)-6-(2-(7-(4-((1S,2R)-6-hydroxy-2-phenyl-1,2,3,4-tetrahydronaphthalen-1-yl)phenyl)-2,7-diazaspiro[3.5]nonan-2-yl)-2-oxoethyl)-6,7-dihydropyrrolo[3,4-f]isoindole-1,3(2H,5H)-dione], greater than 100 nM; for `O=C1CCC(N2C(=O)c3cc4c(cc3C2=O)CN(CCC(=O)NC2CCN(c3ccc([C@@H]5c6ccc(O)cc6CC[C@@H]5c5ccccc5)cc3)CC2)C4)C(=O)N1` (stereo partly drawn) [Compound B94, 3-(6-(2,6-dioxopiperidin-3-yl)-5,7-dioxo-3,5,6,7-tetrahydropyrrolo[3,4-f]isoindol-2(1H)-yl)-N-(1-(4-((1R,2S)-6-hydroxy-2-phenyl-1,2,3,4-tetrahydronaphthalen-1-yl)phenyl)piperidin-4-yl)propenamide], greater than 100 nM.
